Values after ≈ are worked out from the molar mass of the structure shown. Values belong to the compound of their own block, whether it stands above or below them.
Columns and labels:
Assay type in all cases: functional
Staphylococcus aureus [1] = assay: Antibacterial activity against Staphylococcus aureus assessed as bacterial growth inhibition by dilution method
Staphylococcus aureus [2] = assay: Antibacterial activity against methicillin- resistant Staphylococcus aureus assessed as bacterial growth inhibition by dilution method
Staphylococcus aureus [3] = assay: Potency index, ratio of Linezolid MIC to test compound MIC for antibacterial activity against methicillin- resistant Staphylococcus aureus assessed as bacterial growth inhibition by dilution method
Staphylococcus aureus [4] = assay: Antibacterial activity against methicillin-resistant Staphylococcus aureus assessed as bacterial growth inhibition incubated for 18 hrs by absorbance based assay
Escherichia coli [5] = assay: Antibacterial activity against Escherichia coli assessed as bacterial growth inhibition incubated for 18 hrs by absorbance based assay
Acinetobacter baumannii [6] = assay: Antibacterial activity against Acinetobacter baumannii assessed as bacterial growth inhibition incubated for 18 hrs by absorbance based assay
Klebsiella pneumoniae = assay: Antibacterial activity against multi-drug Klebsiella pneumoniae assessed as bacterial growth inhibition incubated for 18 hrs by absorbance based assay
Staphylococcus aureus [7] = assay: Potency index, ratio of Ciprofloxacin MIC to test compound MIC for antibacterial activity against Staphylococcus aureus MTCC 96 assessed as bacterial growth inhibition by broth microdilution method
Streptococcus pyogenes [8] = assay: Antibacterial activity against Streptococcus pyogenes MTCC 442 assessed as bacterial growth inhibition by broth microdilution method
Staphylococcus aureus [9] = assay: Antibacterial activity against Staphylococcus aureus MTCC 96 assessed as bacterial growth inhibition by broth microdilution method
Pseudomonas aeruginosa [10] = assay: Potency index, ratio of Ciprofloxacin MIC to test compound MIC for antibacterial activity against Pseudomonas aeruginosa MTCC 1688 assessed as bacterial growth inhibition by broth microdilution method
Streptococcus pyogenes [11] = assay: Potency index, ratio of Ciprofloxacin MIC to test compound MIC for antibacterial activity against Streptococcus pyogenes MTCC 442 assessed as bacterial growth inhibition by broth microdilution method
Escherichia coli [12] = assay: Potency index, ratio of Ciprofloxacin MIC to test compound MIC for antibacterial activity against Escherichia coli MTCC 443 assessed as bacterial growth inhibition by broth microdilution method
Escherichia coli [13] = assay: Antibacterial activity against Escherichia coli MTCC 443 assessed as bacterial growth inhibition by broth microdilution method
Pseudomonas aeruginosa [14] = assay: Antibacterial activity against Pseudomonas aeruginosa MTCC 1688 assessed as bacterial growth inhibition by broth microdilution method
Escherichia coli [15] = assay: Antibacterial activity against Ciprofloxacin-resistant Escherichia coli assessed as bacterial growth inhibition
Staphylococcus aureus [16] = assay: Antibacterial activity against Ciprofloxacin-resistant Staphylococcus aureus assessed as bacterial growth inhibition
Acinetobacter baumannii [17] = assay: Antibacterial activity against Ciprofloxacin-resistant Acinetobacter baumannii assessed as bacterial growth inhibition
Escherichia coli [18] = assay: Potency index, ratio of Streptomycin MIC to test compound MIC for antibacterial activity against Escherichia coli JM109 assessed as bacterial growth inhibition incubated for 18 to 20 hrs by broth microdilution method; details: time 18-20 hrs
Bacillus subtilis [19] = assay: Antibacterial activity against Bacillus subtilis assessed as bacterial growth inhibition incubated for 18 to 20 hrs by broth microdilution method; details: time 18-20 hrs
Bacillus subtilis [20] = assay: Potency index, ratio of Streptomycin MIC to test compound MIC for antibacterial activity against Bacillus subtilis assessed as bacterial growth inhibition incubated for 18 to 20 hrs by broth microdilution method; details: time 18-20 hrs
Escherichia coli [21] = assay: Antibacterial activity against Escherichia coli JM109 assessed as bacterial growth inhibition incubated for 18 to 20 hrs by broth microdilution method; details: time 18-20 hrs
Staphylococcus aureus [22] = assay: Antibacterial activity against methicillin-resistant Staphylococcus aureus assessed as bacterial growth inhibition
Bacillus subtilis [23] = assay: Antibacterial activity against Bacillus subtilis MTCC 441 assessed as bacterial growth inhibition incubated for 24 hrs by serial dilution method
Staphylococcus aureus [24] = assay: Antibacterial activity against Staphylococcus aureus MTCC 7443 assessed as bacterial growth inhibition incubated for 24 hrs by serial dilution method
Staphylococcus aureus [25] = assay: Potency index, ratio of streptomycin MIC to test compound MIC for antibacterial activity against Staphylococcus aureus assessed as bacterial growth inhibition by broth dilution method
[26] = test system: Staphylococcus epidermidis; assay: Potency index, ratio of streptomycin MIC to test compound MIC for antibacterial activity against Staphylococcus epidermidis assessed as bacterial growth inhibition by broth dilution method
[27] = test system: Staphylococcus epidermidis; assay: Antibacterial activity against Staphylococcus epidermidis assessed as bacterial growth inhibition by broth dilution method
Staphylococcus aureus [28] = assay: Antibacterial activity against Staphylococcus aureus assessed as bacterial growth inhibition by broth dilution method

SMILES: CC(=O)NC[C@H]1CN(c2ccc(-n3cc(-c4ncccn4)nn3)c(F)c2)C(=O)O1
- MIC (Staphylococcus aureus [1]): 2 µg/mL (≈ 5.03 µM)
- MIC (Staphylococcus aureus [2]): 0.5 µg/mL (≈ 1.26 µM)
- Ratio (Staphylococcus aureus [3]): 4

SMILES: Cc1ccc(S(=O)(=O)OCCn2cc(COc3cccc4cccnc34)nn2)cc1
- MIC (Staphylococcus aureus [4]): 75.4 µg/mL (≈ 178 µM)
- MIC (Escherichia coli [5]): 75.4 µg/mL (≈ 178 µM)
- MIC (Acinetobacter baumannii [6]): 75.4 µg/mL (≈ 178 µM)
- MIC (Klebsiella pneumoniae): 75.4 µg/mL (≈ 178 µM)

- MIC (Streptococcus pyogenes [8]): 0.5 µg/mL (≈ 1.54 µM)
- MIC (Staphylococcus aureus [9]): 0.5 µg/mL (≈ 1.54 µM)
- MIC (Escherichia coli [13]): 0.5 µg/mL (≈ 1.54 µM)
- MIC (Pseudomonas aeruginosa [14]): 0.5 µg/mL (≈ 1.54 µM)
SMILES: CN(C)Cc1cn([C@@H]2C(=O)N3[C@@H]2SC(C)(C)[C@@H]3C(=O)O)nn1
- Ratio (Staphylococcus aureus [7]): 2.5
- Ratio (Pseudomonas aeruginosa [10]): 2.5
- Ratio (Streptococcus pyogenes [11]): 2.5
- Ratio (Escherichia coli [12]): 2.5

SMILES: CCOc1c(NC(=O)c2ccc(NC(=O)c3ccc(NC(=O)[C@H](Cc4c[nH]nn4)NC(=O)/C(C)=C/c4ccc(O)cc4)cc3)c(OCC)c2O)ccc(C(=O)O)c1O
- MIC (Escherichia coli [15]): 0.031 µg/mL (≈ 0.0391 µM)
- MIC (Staphylococcus aureus [16]): 0.031 µg/mL (≈ 0.0391 µM)
- MIC (Acinetobacter baumannii [17]): 0.031 µg/mL (≈ 0.0391 µM)

- MIC (Bacillus subtilis [19]): 0.02 µg/mL (≈ 0.0337 µM)
- MIC (Escherichia coli [21]): 0.15 µg/mL (≈ 0.253 µM)
SMILES: Cc1cc2cc(C#CCCCCCCc3cn(C4(C(C)C)Oc5cc6oc(=O)ccc6cc5C4=O)nn3)c(=O)oc2cc1O (centres undefined)
- Ratio (Escherichia coli [18]): 6.7
- Ratio (Bacillus subtilis [20]): 100

SMILES: O=C1C(=O)N(CCn2cc(COc3cccc4cccnc34)nn2)c2c(Br)cc(Br)cc21
- MIC (Staphylococcus aureus [22]): 15.2 µg/mL (≈ 27.3 µM)

- MIC (Bacillus subtilis [23]): 12.5 µg/mL (≈ 25 µM)
- MIC (Staphylococcus aureus [24]): 12.5 µg/mL (≈ 25 µM)
SMILES: CC(C)(NS(=O)(=O)c1ccc(Br)cc1)c1cn(-c2ccc(Br)cc2)nn1

- MIC [27]: 1.17 µg/mL (≈ 2.51 µM)
- MIC (Staphylococcus aureus [28]): 2.34 µg/mL (≈ 5.03 µM)
SMILES: CC1(C)O[C@@H]2[C@@H](CC[C@]3(COC(C)(C)O3)[C@H]2OCc2cn(-c3cccc4ccccc34)nn2)O1
- Ratio (Staphylococcus aureus [25]): 4
- Ratio [26]: 4

Source: ChEMBL document CHEMBL5344406, “1,2,3-Triazole-containing hybrids with potential antibacterial activity against ESKAPE pathogens” (2022)
